In US11202773B2, “Locally bioavailable drugs” (UNIVERSITY OF HOUSTON SYSTEM, priority 2015, dated 2021):
Marks after values point to notes of the source that are not given here.

Key:
[1] = from http://www.drugbank.ca/drugs/DB00482; cited from earlier work
[2] = system: rat liver microsomes; experiment: Glucuronidation by rat liver microsomes; assay type: in vitro ADME; conditions: rat, 10 μM, pH 7.4
Protocol: (§1) FIG. 5A is a bar graph illustrating in vitro metabolism of phenolics via glucuronidation pathway. Glucuronidation rates of all the new locally bioavailable COX-2 inhibitors by rat liver microsomes. Additional metabolic rates of various locally bioavailable COX-2 inhibitors are in Table 3. […]. The incubation systems were: for glucuronidation, 0.88 mM magnesium chloride (MgCl2), 4.4 mM saccharolactone, 0.022 mg/mL alamethicin, 3.5 mM uridine 5′-diphospho-glucuronic acid (UDPGA), 10 μM substrates and different concentrations of microsomes in 50 mM potassium phosphate buffer (pH 7.4); for sulfation, 10 mM dithiothreitol (DTT), 5 mM MgCl2, 100 μM 3′-phosphoadenosine-5′-phosphosulfate (PAPS),10 μM substrate and different concentrations of S9 fractions in 50 mM potassium phosphate buffer (pH 7.4).
(§2) In vitro tools were employed to help predict the in vivo metabolism rates of the COX-2 inhibitors that are phenolics. The microsomes and S9 fractions prepared from colon or liver were used to determine the in vivo glucuronidation and sulfation rates of the phenolic compounds, respectively. By employing microsomes and S9 fractions prepared from both rats and humans, it could be determined if the results obtained in the rat model could be reasonably extrapolated to humans. In these experiments, raloxifene and genistein, two phenolic compounds which undergo extensive first-pass metabolism, were selected as controls.

[3] = system: rat liver S9; experiment: Sulfation by rat liver S9 fractions; assay type: in vitro ADME; conditions: 10 μM, pH 7.4
Protocol: as §1, with “FIG. 5C” for “FIG. 5A”, “via sulfonation” for “via glucuronidation”, “pathway. Sulfation” for “pathway. Glucuronidation”, “of 6a1-6a4” for “of all the new locally bioavailable COX-2 inhibitors”, “liver and colon S9 fractions.” for “liver microsomes.”, “μM 3′-phosphoadeno sine-5′-phosphosulfate” for “μM 3′-phosphoadenosine-5′-phosphosulfate”
as §2

[4] = system: rat colon microsomes; experiment: Glucuronidation by rat colon microsomes; assay type: in vitro ADME; conditions: rat, 10 μM, pH 7.4
Protocol: as §1, with “5B” for “5A”, “glucuronidation” for “metabolism”, “in liver and colon microsomes of rats.” for “via glucuronidation pathway.”, “6a1-6a4” for “all the new locally bioavailable COX-2 inhibitors”, “and colon microsomes were measured.” for “microsomes.”, “(PAPS), 10” for “(PAPS),10”
as §2

[5] = system: rat colon S9; experiment: Sulfation by rat colon S9 fractions; assay type: in vitro ADME; conditions: 10 μM, pH 7.4
Protocol: as §1, with “FIG. 5C” for “FIG. 5A”, “via sulfonation” for “via glucuronidation”, “pathway. Sulfation” for “pathway. Glucuronidation”, “of 6a1-6a4” for “of all the new locally bioavailable COX-2 inhibitors”, “liver and colon S9 fractions.” for “liver microsomes.”, “μM 3′-phosphoadeno sine-5′-phosphosulfate” for “μM 3′-phosphoadenosine-5′-phosphosulfate”
as §2

[6] = system: human liver microsomes; experiment: Glucuronidation by human liver microsomes; assay type: in vitro ADME; conditions: human, 10 μM, pH 7.4
Protocol: as §1, with “FIG. 5D” for “FIG. 5A”, “of phenolics.” for “of phenolics via glucuronidation pathway.”, “of 6a1-6a4” for “of all the new locally bioavailable COX-2 inhibitors”, “by human” for “by rat”, “liver and intestinal” for “liver”, “Table 4.” for “Table 3.”
as §2

[7] = system: human liver S9; experiment: Sulfation by human liver S9; assay type: in vitro ADME; conditions: 10 μM, pH 7.4
Protocol: as §1, with “FIG. 5D” for “FIG. 5A”, “of phenolics.” for “of phenolics via glucuronidation pathway.”, “of 6a1-6a4” for “of all the new locally bioavailable COX-2 inhibitors”, “by human” for “by rat”, “liver and intestinal” for “liver”, “Table 4.” for “Table 3.”
as §2

[8] = system: human intestine microsomes; experiment: Glucuronidation by human intestine microsomes; assay type: in vitro ADME; conditions: human, 10 μM, pH 7.4
Protocol: as §1, with “FIG. 5D” for “FIG. 5A”, “of phenolics.” for “of phenolics via glucuronidation pathway.”, “of 6a1-6a4” for “of all the new locally bioavailable COX-2 inhibitors”, “by human” for “by rat”, “liver and intestinal” for “liver”, “Table 4.” for “Table 3.”
as §2

[9] = system: human intestine S9; experiment: Sulfation by human intestine S9; assay type: in vitro ADME; conditions: 10 μM, pH 7.4
Protocol: as §1, with “FIG. 5D” for “FIG. 5A”, “of phenolics.” for “of phenolics via glucuronidation pathway.”, “of 6a1-6a4” for “of all the new locally bioavailable COX-2 inhibitors”, “by human” for “by rat”, “liver and intestinal” for “liver”, “Table 4.” for “Table 3.”
as §2

Glucuronidation rates by liver microsomes (Mean) [2]	Sulfation rates by liver S9 (Mean) [3]	Glucuronidation rates by colon microsomes (Mean) [4]	Sulfation rates by colon S9 (Mean) [5]	Glucuronidation rates by liver microsomes (Mean) [6]	Sulfation rates by liver S9 (Mean) [7]	Glucuronidation rates by intestine microsomes (Mean) [8]	Sulfation rates by human intestine S9 (Mean) [9]	SMILES	LogP [1]
								Cc1ccc(-c2cc(C(F)(F)F)nn2-c2ccc(S(N)(=O)=O)cc2)cc1 [Celecoxib, celecoxib]	4.01^b
402 pmol/mg/min	100 pmol/mg/min	54 pmol/mg/min	0 pmol/mg/min	681 pmol/mg/min	19 pmol/mg/min	2846 pmol/mg/min	58 pmol/mg/min	O=C(c1ccc(OCCN2CCCCC2)cc1)c1c(-c2ccc(O)cc2)sc2cc(O)ccc12 [Raloxifene, reference compound]	
